In PubChem BioAssay AID2060497 (Molecular Pharmacology Branch, DTP, NCI, 2025):

Tested on: 317291-083-R-J1-PDC complex spheroids, viability
Assay: Anticancer human tumor 317291-083-R-J1-PDC patient-derived soft tissue sarcoma cell line growth inhibition [GQUAD]
Conditions: for IC50: curve of first compound; for viability, T/C: stronger effect = lower value
Description: DNA G-quadruplex Stabilizer Agents in Combinations in Complex Spheroids
A high-throughput screen of multi-cell type tumor spheroids was designed to identify active combinations of DNA G-quadruplex stabilizer agents and targeted small molecules. Complex spheroids include a stromal component modeled by human endothelial cells (HUVEC) and fibroblasts modeled by human mesenchymal stem cells (MSCs). The concentration ranges selected for each drug and investigational agent were based upon clinically achievable concentrations if the clinical Cmax of the agent was known.
Compounds. The drugs and investigational agents: pidnarulex (CX-5461; NSC782164), APTO-253 (NSC789042), BRACO-19 (NSC847499), peposertib (NSC802822), ceralasertib (NSC780249), elimusertib (NSC800525), camonsertib (NSC841442), AZD-1390 (NSC803789), olaparib (NSC753686), talazoparib (NSC767125), ART-558 (NSC835418), sotorasib (NSC818433), MRTX-1133 (NSC836407), SN-38 (NSC673596), topotecan (NSC609699), etoposide (NSC141540), doxorubicin (NSC123127), gemcitabine (NSC613327), 5-fluorouracil (NSC19893), paclitaxel (NSC125973), vemurafenib (NSC761431), panobinostat (NSC761190), R-306465 (JNJ-16241199; NSC773264), adavosertib (NSC754352), TP-3654 (NSC805149), carboplatin (NSC241240), KSQ-4279 (NSC840948), and staurosporine (NSC755774) were obtained from the National Cancer Institute (NCI) Developmental Therapeutics Program Chemical Repository (34). The FDA-approved anticancer drug set is available from the NCI Developmental Therapeutics Program. […] The stock solutions were prepared in dimethyl sulfoxide (DMSO, Sigma-Aldrich, St. Louis, MO, cat. D2650) at 800-fold the tested concentration and stored at -70 degrees C prior to their use. All drugs and investigational agents were tested over a range starting from a high concentration at or near the clinical Cmax and decreasing in half-log increments. If the clinical Cmax for an agent had not been determined, the highest concentration tested was 10 microM.
2.3 Cell Culture. All cells were maintained in an incubator at 37 degrees C and 5% CO2 with 95% humidity. The PDC lines were cultured according to standard operating procedures established by the NCI PDMR. All PDCs were thawed and cultured in Matrigel-coated flasks prepared with a working solution of 1X Ham's F-12 nutrient mix, without supplementation (Invitrogen, cat. 11765054), 100 U/mL penicillin-streptomycin (Invitrogen, cat. 15140122), and 2.5% Matrigel (Corning Inc., cat. 354248) for the first three passages. The 857933-349-R-J2-PDC line was cultured in 6C/Colon 1B media, which includes advanced DMEM/F-12 (Thermo Fisher Scientific, cat. 12634028), 10 mM HEPES (Thermo Fisher Scientific, cat. 15630080), 1X GlutaMAX supplement (Thermo Fisher Scientific, cat. 35050061), 0.1 mg/mL primocin (InvivoGen, cat. ant-pm-2), 10% defined fetal bovine serum, heat inactivated (HyClone Laboratories Inc., cat. SH30070.03HI), 50% L-WRN conditioned media (ATCC, cat. CRL-3276), 1.25 mM N-Acetyl-L-cysteine (Sigma-Aldrich, cat. A9165), 10 mM nicotinamide (Sigma-Aldrich, cat. N0636), 1X B-27 supplement (Thermo Fisher Scientific, cat. 17504044), 1X N-2 supplement (Thermo Fisher Scientific, cat. 17502048), 10 microM Y-27632 dihydrochloride (Tocris Bioscience, cat. 1254), and 50 ng/mL human EGF recombinant protein (Thermo Fisher Scientific, cat. PHG0311). The 485176-168-R4-J1-PDC line was cultured in Panc media, which includes all 6C/Colon 1B media components plus 100 ng/mL human FGF-10 (Thermo Fisher Scientific, cat. 100-26), 500 nM SB-431542 (Selleckchem, cat. S1067), and gastrin (Tocris, cat. 3006).
[…]

[1] = second compound 0.0316 µM, first compound 0.0316 µM
[2] = second compound 0.0316 µM, first compound 0.1 µM
[3] = second compound 0.0316 µM, first compound 0.316 µM
[4] = second compound 0.0316 µM, first compound 1 µM
[5] = second compound 0.0316 µM, first compound 3.16 µM
[6] = second compound 0.0316 µM, first compound 10 µM
[7] = second compound 0.1 µM, first compound 0.0316 µM
[8] = second compound 0.1 µM, first compound 0.1 µM
[9] = second compound 0.1 µM, first compound 0.316 µM
[10] = second compound 0.1 µM, first compound 1 µM
[11] = second compound 0.1 µM, first compound 3.16 µM
[12] = second compound 0.1 µM, first compound 10 µM
[13] = second compound 0.316 µM, first compound 0.0316 µM
[14] = second compound 0.316 µM, first compound 0.1 µM
[15] = second compound 0.316 µM, first compound 0.316 µM
[16] = second compound 0.316 µM, first compound 1 µM
[17] = second compound 0.316 µM, first compound 3.16 µM
[18] = second compound 0.316 µM, first compound 10 µM
[19] = second compound 1 µM, first compound 0.0316 µM
[20] = second compound 1 µM, first compound 0.1 µM
[21] = second compound 1 µM, first compound 0.316 µM
[22] = second compound 1 µM, first compound 1 µM
[23] = second compound 1 µM, first compound 3.16 µM
[24] = second compound 1 µM, first compound 10 µM
[25] = second compound 3.16 µM, first compound 0.0316 µM
[26] = second compound 3.16 µM, first compound 0.1 µM
[27] = second compound 3.16 µM, first compound 0.316 µM
[28] = second compound 3.16 µM, first compound 1 µM
[29] = second compound 3.16 µM, first compound 3.16 µM
[30] = second compound 3.16 µM, first compound 10 µM
[31] = second compound 10 µM, first compound 0.0316 µM
[32] = second compound 10 µM, first compound 0.1 µM
[33] = second compound 10 µM, first compound 0.316 µM
[34] = second compound 10 µM, first compound 1 µM
[35] = second compound 10 µM, first compound 3.16 µM
[36] = second compound 10 µM, first compound 10 µM
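Note: spheroids exposed to compounds for one week before readout.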
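Throughout, for viability, T/C: percent viability relative to DMSO vehicle wells taken as 100%.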

**Q.** What does the source list for `O=C(c1cc(Cc2n[nH]c(=O)c3ccccc23)ccc1F)N1CCN(C(=O)C2CC2)CC1` + Cc1cnc(CNC(=O)c2c(=O)c3ccc(N4CCCN(C)CC4)nc3n3c2sc2ccccc23)cn1?
**A.** IC50 (second compound 0.0316 µM): > 10000 nM; IC50 (second compound 0.1 µM): 2170 nM; IC50 (second compound 0.316 µM): < 31.6 nM; IC50 (second compound 1 µM): < 31.6 nM; IC50 (second compound 3.16 µM): < 31.6 nM; IC50 (second compound 10 µM): < 31.6 nM; viability, T/C [1]: 101%; viability, T/C [2]: 92.4%; viability, T/C [3]: 89.7%; viability, T/C [4]: 77.5%; viability, T/C [5]: 67.7%; viability, T/C [6]: 59.3%; viability, T/C [7]: 88.3%; viability, T/C [8]: 72.7%; viability, T/C [9]: 64.5%; viability, T/C [10]: 57.6%; viability, T/C [11]: 53.3%; viability, T/C [12]: 31.2%; viability, T/C [13]: 44.7%; viability, T/C [14]: 43.4%; viability, T/C [15]: 57.1%; viability, T/C [16]: 33.8%; viability, T/C [17]: 39.2%; viability, T/C [18]: 46%; viability, T/C [19]: 30%; viability, T/C [20]: 38.5%; viability, T/C [21]: 51.5%; viability, T/C [22]: 26.6%; viability, T/C [23]: 24.2%; viability, T/C [24]: 19.6%; viability, T/C [25]: 17.2%; viability, T/C [26]: 14.6%; viability, T/C [27]: 64.8%; viability, T/C [28]: 39.8%; viability, T/C [29]: 32.8%; viability, T/C [30]: 14.8%; viability, T/C [31]: 31.1%; viability, T/C [32]: 16.8%; viability, T/C [33]: 19.1%; viability, T/C [34]: 36.2%; viability, T/C [35]: 20.5%; viability, T/C [36]: 15.2%

**Q.** With `COc1cc(C2c3cc4c(cc3C(OC3OC5COC(C)OC5C(O)C3O)C3COC(=O)C23)OCO4)cc(OC)c1O` (centres undefined) + CN(C)c1ccc(Nc2c3ccc(NC(=O)CCN4CCCC4)cc3nc3cc(NC(=O)CCN4CCCC4)ccc23)cc1 as the compound, how does the IC50 (second compound 0.0316 µM) read?
**A.** 310 nM

**Q.** What about the IC50 (second compound 0.1 µM) of the same compound?
**A.** 357 nM

**Q.** And the IC50 (second compound 0.316 µM)?
**A.** 283 nM

**Q.** What about the IC50 (second compound 1 µM) of the same compound?
**A.** 55.4 nM

**Q.** What about the IC50 (second compound 3.16 µM) of the same compound?
**A.** < 31.6 nM

**Q.** And the IC50 (second compound 10 µM)?
**A.** < 31.6 nM

**Q.** What about the viability, T/C [1] of the same compound?
**A.** 89.9%

**Q.** What about the viability, T/C [2] of the same compound?
**A.** 82.2%

**Q.** And the viability, T/C [3]?
**A.** 48.9%

**Q.** What about the viability, T/C [4] of the same compound?
**A.** 26.8%

**Q.** What about the viability, T/C [5] of the same compound?
**A.** 19.4%

**Q.** What about the viability, T/C [6] of the same compound?
**A.** 21.7%

**Q.** And the viability, T/C [7]?
**A.** 92.1%

**Q.** What about the viability, T/C [8] of the same compound?
**A.** 86%

**Q.** And the viability, T/C [9]?
**A.** 50.4%

**Q.** What about the viability, T/C [10] of the same compound?
**A.** 29.6%

**Q.** And the viability, T/C [11]?
**A.** 15.7%

**Q.** And the viability, T/C [12]?
**A.** 18.1%

**Q.** What about the viability, T/C [13] of the same compound?
**A.** 79.8%

**Q.** What about the viability, T/C [14] of the same compound?
**A.** 71.9%

**Q.** And the viability, T/C [15]?
**A.** 46.8%

**Q.** And the viability, T/C [16]?
**A.** 26.1%

**Q.** What about the viability, T/C [17] of the same compound?
**A.** 20.1%

**Q.** And the viability, T/C [18]?
**A.** 12.3%

**Q.** And the viability, T/C [19]?
**A.** 62.1%

**Q.** What about the viability, T/C [20] of the same compound?
**A.** 37.9%

**Q.** What about the viability, T/C [21] of the same compound?
**A.** 20.7%

**Q.** What about the viability, T/C [22] of the same compound?
**A.** 15.7%

**Q.** And the viability, T/C [23]?
**A.** 13.5%

**Q.** And the viability, T/C [24]?
**A.** 7.56%

**Q.** And the viability, T/C [25]?
**A.** 39%

**Q.** What about the viability, T/C [26] of the same compound?
**A.** 12.5%

**Q.** What about the viability, T/C [27] of the same compound?
**A.** 21.5%

**Q.** And the viability, T/C [28]?
**A.** 9.89%

**Q.** And the viability, T/C [29]?
**A.** 8.39%

**Q.** What about the viability, T/C [30] of the same compound?
**A.** 6.12%

**Q.** And the viability, T/C [31]?
**A.** 12.7%

**Q.** What about the viability, T/C [32] of the same compound?
**A.** 8.34%

**Q.** What about the viability, T/C [33] of the same compound?
**A.** 4.76%

**Q.** What about the viability, T/C [34] of the same compound?
**A.** 7.68%

**Q.** What about the viability, T/C [35] of the same compound?
**A.** 5.05%

**Q.** What about the viability, T/C [36] of the same compound?
**A.** 0.99%
